The target of the assay is T1, ROP18 (187–554 aa) kinase domain (Toxoplasma gondii, UniProt Q2PAY2).
T1 construct: kinase domain 187-554 of ROP18; His6-GST-MBP-Gb1 fusion from plasmid pETDL4.0-ROP18, E. coli Rosetta 2, amylose beads; 4JRN is the docking structure (187-554), not solved here
Description: HTRF KinEASE kinase assay with biotinylated peptide substrate. It counts as biochemical.

Read-outs that look alike come from different tables or passages of the source.

2 compounds from PMC6416898, “Prediction of Toxoplasma gondii virulence factor ROP18 competitive inhibitors by virtual screening” (Parasites & Vectors, 2019) can be followed below.

By IC50 is commonly meant the concentration that gives 50% inhibition.

T1 sequence (Q2PAY2 187-554): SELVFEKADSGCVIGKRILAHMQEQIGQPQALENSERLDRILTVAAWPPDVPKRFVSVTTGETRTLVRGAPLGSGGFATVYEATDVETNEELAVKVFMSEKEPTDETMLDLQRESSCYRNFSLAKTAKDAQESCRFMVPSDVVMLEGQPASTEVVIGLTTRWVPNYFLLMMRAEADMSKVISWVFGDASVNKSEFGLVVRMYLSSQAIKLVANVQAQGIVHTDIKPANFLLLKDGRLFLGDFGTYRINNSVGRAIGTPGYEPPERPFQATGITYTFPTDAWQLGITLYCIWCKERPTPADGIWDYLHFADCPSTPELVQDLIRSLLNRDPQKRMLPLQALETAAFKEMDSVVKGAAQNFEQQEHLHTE

Consider `O=C(O)CCCCCN1C(=O)c2c(Br)c(Br)c(Br)c(Br)c2C1=O` [compound 11, AK-918/11642046], for which the IC50 (read-out: IC50) came to 41 nM.

`C=CCN1C(=O)NC(=O)/C(=C/c2cc(Br)c(OCC(=O)O)c(OC)c2)C1=O` [compound 1]: half-maximal inhibition (IC50) required 220 nM.
